Test results: patent publication US9637483B2, “Heterocyclic compound” (TAKEDA PHARMACEUTICAL COMPANY LIMITED, priority 2013, dated 2017)

Assays:
Format in all cases: biochemical
JAK1 = target: T1, JAK1 (Homo sapiens, UniProt P23458); assay: JAK1 enzyme inhibition test (LANCE method); conditions: 1 μM test compound; read-out: JAK1 enzyme inhibitory activity (%, 1 μM)
T1 construct: purchased Invitrogen
In short: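 Inhibition expressed against no-enzyme wells (100% inhibition), from time-resolved fluorescence at 665 nm after Eu-anti-phosphotyrosine antibody/EDTA detection. Kinase reaction ran 1 h at room temperature, pH 7.5 HEPES buffer, ULight-JAK1 substrate and ATP diluted to 300 nM and 150 μM before addition.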

JAK2 = target: T2, JAK2 (Homo sapiens, UniProt O60674); assay: JAK2 enzyme inhibition test (LANCE method); conditions: 1 μM test compound; read-out: JAK2 enzyme inhibitory activity (%, 1 μM)
T2 construct: purchased Invitrogen
T2 sequence (O60674 whole entry): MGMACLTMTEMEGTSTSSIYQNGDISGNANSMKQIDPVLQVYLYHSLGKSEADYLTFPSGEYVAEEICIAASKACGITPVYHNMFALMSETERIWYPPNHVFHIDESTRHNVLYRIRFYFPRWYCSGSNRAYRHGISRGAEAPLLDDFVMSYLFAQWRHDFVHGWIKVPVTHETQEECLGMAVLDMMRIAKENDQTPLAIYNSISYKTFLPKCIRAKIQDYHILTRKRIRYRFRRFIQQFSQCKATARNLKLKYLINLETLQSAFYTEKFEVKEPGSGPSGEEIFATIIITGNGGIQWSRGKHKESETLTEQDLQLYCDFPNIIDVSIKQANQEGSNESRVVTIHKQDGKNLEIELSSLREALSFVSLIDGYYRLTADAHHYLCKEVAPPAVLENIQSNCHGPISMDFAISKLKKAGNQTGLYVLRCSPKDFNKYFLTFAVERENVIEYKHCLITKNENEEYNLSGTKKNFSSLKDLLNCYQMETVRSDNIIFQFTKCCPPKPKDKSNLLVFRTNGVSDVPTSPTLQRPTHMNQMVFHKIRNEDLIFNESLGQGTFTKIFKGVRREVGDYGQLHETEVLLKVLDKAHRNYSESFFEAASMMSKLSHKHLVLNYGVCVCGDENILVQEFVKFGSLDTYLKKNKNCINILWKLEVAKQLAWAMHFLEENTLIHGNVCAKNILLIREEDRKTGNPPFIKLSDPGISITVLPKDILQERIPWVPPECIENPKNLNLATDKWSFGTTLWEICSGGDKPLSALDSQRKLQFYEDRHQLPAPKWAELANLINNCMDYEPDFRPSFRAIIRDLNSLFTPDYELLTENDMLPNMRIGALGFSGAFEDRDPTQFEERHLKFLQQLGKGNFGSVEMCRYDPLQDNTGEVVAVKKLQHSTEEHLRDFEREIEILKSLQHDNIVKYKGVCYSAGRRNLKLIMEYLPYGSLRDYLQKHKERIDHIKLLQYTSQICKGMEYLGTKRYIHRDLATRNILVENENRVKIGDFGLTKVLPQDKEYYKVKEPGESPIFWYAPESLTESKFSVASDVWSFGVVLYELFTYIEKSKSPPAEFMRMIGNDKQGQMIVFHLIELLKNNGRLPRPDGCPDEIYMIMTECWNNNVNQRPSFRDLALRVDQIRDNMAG
In short: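 TR-FRET (LANCE) read-out, ex 340/em 665 nm with 100 μs delay, after 1 hr room-temperature detection with europium anti-phosphotyrosine antibody and 20 mM EDTA. The preceding 1 hr kinase reaction combined JAK2, ULight-JAK1 substrate and ATP, added as 6 ng/mL, 300 nM and 45 μM solutions; enzyme-free wells defined 100% inhibition.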

JAK3 = target: T3, JAK3 (Homo sapiens, UniProt P52333); assay: JAK3 enzyme inhibition test (LANCE method); conditions: 1 μM test compound; read-out: JAK3 enzyme inhibitory activity (%, 1 μM)
T3 construct: purchased Invitrogen
T3 sequence (P52333 1-1124): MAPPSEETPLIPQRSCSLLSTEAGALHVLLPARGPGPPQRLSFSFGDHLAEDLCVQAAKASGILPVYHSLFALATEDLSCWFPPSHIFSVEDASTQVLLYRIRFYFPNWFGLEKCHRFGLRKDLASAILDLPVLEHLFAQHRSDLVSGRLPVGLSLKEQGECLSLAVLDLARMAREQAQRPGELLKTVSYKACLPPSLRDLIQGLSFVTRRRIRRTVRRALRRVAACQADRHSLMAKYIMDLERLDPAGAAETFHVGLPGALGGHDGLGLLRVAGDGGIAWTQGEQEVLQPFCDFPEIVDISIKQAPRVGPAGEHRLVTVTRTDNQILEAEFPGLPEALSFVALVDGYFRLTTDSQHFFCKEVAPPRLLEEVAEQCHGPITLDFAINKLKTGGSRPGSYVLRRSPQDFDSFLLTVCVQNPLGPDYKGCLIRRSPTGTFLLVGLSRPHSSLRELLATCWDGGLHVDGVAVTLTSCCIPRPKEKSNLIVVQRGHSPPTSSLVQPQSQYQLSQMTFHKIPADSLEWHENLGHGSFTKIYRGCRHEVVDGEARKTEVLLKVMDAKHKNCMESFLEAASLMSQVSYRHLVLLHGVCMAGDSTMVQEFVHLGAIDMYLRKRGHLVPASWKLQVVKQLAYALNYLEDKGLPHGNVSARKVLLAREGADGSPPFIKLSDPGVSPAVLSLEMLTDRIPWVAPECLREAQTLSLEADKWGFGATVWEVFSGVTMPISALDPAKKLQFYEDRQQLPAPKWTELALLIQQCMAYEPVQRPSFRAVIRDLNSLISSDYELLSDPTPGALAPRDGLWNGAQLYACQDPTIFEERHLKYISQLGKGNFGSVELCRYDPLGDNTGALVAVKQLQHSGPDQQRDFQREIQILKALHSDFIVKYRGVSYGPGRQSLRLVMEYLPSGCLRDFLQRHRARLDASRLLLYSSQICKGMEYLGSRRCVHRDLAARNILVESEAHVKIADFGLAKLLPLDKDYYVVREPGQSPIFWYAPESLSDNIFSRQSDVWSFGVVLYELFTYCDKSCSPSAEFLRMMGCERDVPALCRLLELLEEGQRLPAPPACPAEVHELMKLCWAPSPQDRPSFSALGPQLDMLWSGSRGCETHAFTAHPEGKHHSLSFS
In short: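 TR-FRET (LANCE) read: 1 h room-temperature reaction, EDTA quench, Eu-anti-phosphotyrosine antibody, emission 665 nm after 340 nm excitation. Added solutions held 12 ng/mL JAK3, 300 nM ULight-JAK1 substrate and 15 μM ATP (pH 7.5 HEPES). Activity expressed against no-enzyme wells defined as full inhibition.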

TYK2 = target: T4, TYK2 (Homo sapiens, UniProt P29597); assay: TYK2 enzyme inhibition test (LANCE method); conditions: 1 μM test compound; read-out: TYK2 enzyme inhibitory activity (%, 1 μM)
T4 construct: purchased Invitrogen
T4 sequence (P29597 whole entry): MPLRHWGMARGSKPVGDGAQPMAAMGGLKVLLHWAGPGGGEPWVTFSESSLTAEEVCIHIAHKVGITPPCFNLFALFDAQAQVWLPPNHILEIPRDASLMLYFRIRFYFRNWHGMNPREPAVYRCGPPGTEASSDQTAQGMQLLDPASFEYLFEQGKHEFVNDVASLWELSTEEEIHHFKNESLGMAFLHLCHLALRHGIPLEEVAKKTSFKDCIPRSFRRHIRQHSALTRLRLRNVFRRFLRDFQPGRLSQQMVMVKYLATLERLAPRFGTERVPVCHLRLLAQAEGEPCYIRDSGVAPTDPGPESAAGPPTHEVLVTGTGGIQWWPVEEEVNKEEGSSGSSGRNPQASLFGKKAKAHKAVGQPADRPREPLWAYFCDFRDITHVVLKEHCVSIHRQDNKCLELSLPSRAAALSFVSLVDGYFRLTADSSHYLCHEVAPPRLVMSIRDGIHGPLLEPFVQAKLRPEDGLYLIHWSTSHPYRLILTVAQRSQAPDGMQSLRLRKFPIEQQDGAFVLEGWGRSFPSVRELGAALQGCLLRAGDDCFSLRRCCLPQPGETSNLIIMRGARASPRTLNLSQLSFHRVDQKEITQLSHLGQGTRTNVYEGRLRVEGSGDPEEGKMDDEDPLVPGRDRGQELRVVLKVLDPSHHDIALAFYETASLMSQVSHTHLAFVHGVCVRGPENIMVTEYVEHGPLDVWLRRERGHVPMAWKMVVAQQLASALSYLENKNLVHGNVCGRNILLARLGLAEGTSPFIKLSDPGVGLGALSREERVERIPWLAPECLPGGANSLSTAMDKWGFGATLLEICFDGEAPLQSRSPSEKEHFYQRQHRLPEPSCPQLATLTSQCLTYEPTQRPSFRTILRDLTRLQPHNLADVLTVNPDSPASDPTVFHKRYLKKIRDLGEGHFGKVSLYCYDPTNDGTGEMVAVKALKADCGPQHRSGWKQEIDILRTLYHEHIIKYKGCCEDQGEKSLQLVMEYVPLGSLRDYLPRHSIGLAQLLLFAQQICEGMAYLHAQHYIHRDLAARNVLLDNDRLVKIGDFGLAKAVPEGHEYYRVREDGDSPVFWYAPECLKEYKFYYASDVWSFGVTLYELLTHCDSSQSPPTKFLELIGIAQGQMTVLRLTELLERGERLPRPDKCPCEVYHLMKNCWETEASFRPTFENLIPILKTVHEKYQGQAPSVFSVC
In short: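 TR-FRET (LANCE) readout: after 1 h room-temperature kinase reaction, EDTA plus 4 nM Eu-labelled anti-phosphotyrosine antibody added, signal at 665 nm (340 nm excitation). Reaction combined TYK2, ULight-JAK1 substrate and ATP, prepared at 375 ng/mL, 300 nM and 30 μM before addition, in pH 7.5 HEPES/MgCl2 buffer; enzyme-free wells define full inhibition.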

T1 sequence (P23458 whole entry): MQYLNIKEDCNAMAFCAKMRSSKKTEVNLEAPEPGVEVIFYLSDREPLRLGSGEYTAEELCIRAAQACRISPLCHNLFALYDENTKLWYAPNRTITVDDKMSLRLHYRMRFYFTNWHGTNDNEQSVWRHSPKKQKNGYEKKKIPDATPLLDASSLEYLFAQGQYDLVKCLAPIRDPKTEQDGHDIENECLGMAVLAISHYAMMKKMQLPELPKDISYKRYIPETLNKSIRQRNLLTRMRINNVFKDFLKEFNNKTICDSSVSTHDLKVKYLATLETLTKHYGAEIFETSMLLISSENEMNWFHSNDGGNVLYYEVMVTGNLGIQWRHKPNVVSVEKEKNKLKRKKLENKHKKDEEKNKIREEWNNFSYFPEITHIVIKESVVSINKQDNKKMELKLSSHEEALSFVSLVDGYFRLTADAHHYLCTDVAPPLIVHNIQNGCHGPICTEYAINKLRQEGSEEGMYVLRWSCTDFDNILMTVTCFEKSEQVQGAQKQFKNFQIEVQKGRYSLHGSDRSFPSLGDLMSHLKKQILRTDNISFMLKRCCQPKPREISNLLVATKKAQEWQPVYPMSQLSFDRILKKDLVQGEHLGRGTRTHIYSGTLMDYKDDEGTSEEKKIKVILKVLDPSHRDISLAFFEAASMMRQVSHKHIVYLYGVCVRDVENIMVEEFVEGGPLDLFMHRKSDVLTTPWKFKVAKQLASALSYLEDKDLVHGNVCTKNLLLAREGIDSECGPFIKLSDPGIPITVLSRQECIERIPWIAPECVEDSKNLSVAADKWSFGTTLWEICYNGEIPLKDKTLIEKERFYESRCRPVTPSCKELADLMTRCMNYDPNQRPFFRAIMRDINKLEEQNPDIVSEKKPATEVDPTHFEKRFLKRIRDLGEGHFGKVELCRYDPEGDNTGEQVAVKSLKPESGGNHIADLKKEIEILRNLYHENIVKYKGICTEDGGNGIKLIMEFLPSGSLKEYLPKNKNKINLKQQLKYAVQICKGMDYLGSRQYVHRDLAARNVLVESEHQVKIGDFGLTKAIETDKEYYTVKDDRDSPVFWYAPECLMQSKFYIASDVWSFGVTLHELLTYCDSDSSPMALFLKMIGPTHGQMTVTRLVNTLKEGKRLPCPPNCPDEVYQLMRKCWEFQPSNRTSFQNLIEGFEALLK

inhibition at 1 µM (JAK1) [%]	inhibition at 1 µM (JAK2) [%]	inhibition at 1 µM (JAK3) [%]	inhibition at 1 µM (TYK2) [%]	SMILES
96	96	99	98	CC(C)[C@H](C)n1cc(-c2cc(C(F)(F)F)n(C)n2)c2[nH]nc(N)c2c1=O [Example 42, 3-amino-5-((2S)-3-methylbutan-2-yl)-7-(1-methyl-5-(trifluoromethyl)-1H-pyrazol-3-yl)-1,5-dihydro-4H-pyrazolo[4,3-c]pyridin-4-one]
97	97	99	100	CC(C)[C@H](C)n1cc(-c2cc(C3CC3)n(C)n2)c2[nH]nc(N)c2c1=O [Example 43, 3-amino-7-(5-cyclopropyl-1-methyl-1H-pyrazol-3-yl)-5-((2S)-3-methylbutan-2-yl)-1,5-dihydro-4H-pyrazolo[4,3-c]pyridin-4-one]
90	96	99	101	CC(C)[C@H](C)n1cc(-c2cc(CN3CCCC3)n(C)n2)c2[nH]nc(N)c2c1=O [Example 44, 3-amino-5-((2S)-3-methylbutan-2-yl)-7-(1-methyl-5-(pyrrolidin-1-ylmethyl)-1H-pyrazol-3-yl)-1,5-dihydro-4H-pyrazolo[4,3-c]pyridin-4-one]
98	99	99	100	CC(C)[C@H](C)n1cc(-c2cc(C(=O)N3CCS(=O)(=O)CC3)n(C)n2)c2[nH]nc(N)c2c1=O [Example 45, 3-amino-7-(5-((1,1-dioxidothiomorpholin-4-yl)carbonyl)-1-methyl-1H-pyrazol-3-yl)-5-((2S)-3-methylbutan-2-yl)-1,5-dihydro-4H-pyrazolo[4,3-c]pyridin-4-one]
95	98	99	99	COCCN(C)C(=O)c1cc(-c2cn([C@@H](C)C(C)C)c(=O)c3c(N)n[nH]c23)nn1C [Example 46, 3-(3-amino-5-((2S)-3-methylbutan-2-yl)-4-oxo-4,5-dihydro-1H-pyrazolo[4,3-c]pyridin-7-yl)-N-(2-methoxyethyl)-N,1-dimethyl-1H-pyrazole-5-carboxamide]
93	98	100	99	CC(C)[C@H](C)n1cc(-c2cc(CN3CCS(=O)(=O)CC3)n(C)n2)c2[nH]nc(N)c2c1=O [Example 47, 3-amino-7-(5-((1,1-dioxidothiomorpholin-4-yl)methyl)-1-methyl-1H-pyrazol-3-yl)-5-((2S)-3-methylbutan-2-yl)-1,5-dihydro-4H-pyrazolo[4,3-c]pyridin-4-one]
94	97	100	99	CC(C)[C@H](C)n1cc(-c2cc(N3CCCCC3=O)n(C)n2)c2[nH]nc(N)c2c1=O [Example 48, 3-amino-5-((2S)-3-methylbutan-2-yl)-7-(1-methyl-5-(2-oxopiperidin-1-yl)-1H-pyrazol-3-yl)-1,5-dihydro-4H-pyrazolo[4,3-c]pyridin-4-one]
96	97	100	99	CC(C)[C@H](C)n1cc(-c2cc(N3CCOCC3=O)n(C)n2)c2[nH]nc(N)c2c1=O [Example 49, 3-amino-5-((2S)-3-methylbutan-2-yl)-7-(1-methyl-5-(3-oxomorpholin-4-yl)-1H-pyrazol-3-yl)-1,5-dihydro-4H-pyrazolo[4,3-c]pyridin-4-one]
96	99	100	99	CC(C)[C@H](C)n1cc(-c2cc(C(=O)N(C)C3CCCC3)n(C)n2)c2[nH]nc(N)c2c1=O [Example 50, 3-(3-amino-5-((2S)-3-methylbutan-2-yl)-4-oxo-4,5-dihydro-1H-pyrazolo[4,3-c]pyridin-7-yl)-N-cyclopentyl-N,1-dimethyl-1H-pyrazole-5-carboxamide]
97	97	97	99	CC(=O)NCC(C)(C)c1cc(-c2cn([C@@H](C)C(C)C)c(=O)c3c(N)n[nH]c23)nn1C [Example 51, N-(2-(3-(3-amino-5-((2S)-3-methylbutan-2-yl)-4-oxo-4,5-dihydro-1H-pyrazolo[4,3-c]pyridin-7-yl)-1-methyl-1H-pyrazol-5-yl)-2-methylpropyl)acetamide]
96	99	99	100	CC(C)[C@H](C)n1cc(-c2cc(CN3CCCC3=O)n(C)n2)c2[nH]nc(N)c2c1=O [Example 52, 3-amino-5-((2S)-3-methylbutan-2-yl)-7-(1-methyl-5-((2-oxopyrrolidin-1-yl)methyl)-1H-pyrazol-3-yl)-1,5-dihydro-4H-pyrazolo[4,3-c]pyridin-4-one]
95	96	99	98	CC(C)[C@H](C)n1cc(-c2cc(C(=O)N(C)C3CCOCC3)n(C)n2)c2[nH]nc(N)c2c1=O [Example 53, 3-(3-amino-5-((2S)-3-methylbutan-2-yl)-4-oxo-4,5-dihydro-1H-pyrazolo[4,3-c]pyridin-7-yl)-N,1-dimethyl-N-(tetrahydro-2H-pyran-4-yl)-1H-pyrazole-5-carboxamide]
98	98	99	98	CC(C)[C@H](C)n1cc(-c2cc(N3CCOC3=O)n(C)n2)c2[nH]nc(N)c2c1=O [Example 54, 3-amino-5-((2S)-3-methylbutan-2-yl)-7-(1-methyl-5-(2-oxo-1,3-oxazolidin-3-yl)-1H-pyrazol-3-yl)-1,5-dihydro-4H-pyrazolo[4,3-c]pyridin-4-one]
98	98	99	99	CC(C)[C@H](C)n1cc(-c2cc(N3CCCC3=O)n(C)n2)c2[nH]nc(N)c2c1=O [Example 55, 3-amino-5-((2S)-3-methylbutan-2-yl)-7-(1-methyl-5-(2-oxopyrrolidin-1-yl)-1H-pyrazol-3-yl)-1,5-dihydro-4H-pyrazolo[4,3-c]pyridin-4-one]
70	94	94	98	CC(C)[C@H](C)n1cc(-c2cc(C(C)(C)C(=O)N(C)C)n(C)n2)c2[nH]nc(N)c2c1=O [Example 56, 2-(3-(3-amino-5-((2S)-3-methylbutan-2-yl)-4-oxo-4,5-dihydro-1H-pyrazolo[4,3-c]pyridin-7-yl)-1-methyl-1H-pyrazol-5-yl)-N,N,2-trimethylpropanamide]
